Measurements: patent US20210115104A1, “AMYLIN ANALOGUES” (Zealand Pharma A/S, priority 2015, published 2021)
*1 amine or outer side, *2 acyl side, *3 side chain or, on linkers, in order; H or OH if unused. Where a SMILES comes first, the peptide text is derived from it. Bridges are numbered along the chain shown (N, C = ends). [ ]: non-standard residue; d: D form. The star is where a group is joined. C20 diacid = O=C(O)CCCCCCCCCCCCCCCCCCC(=O)*; γGlu = O=C(O)[C@H](CCC(=O)[*:2])N[*:1]; Hyp = O=C(O)[C@@H]1C[C@@H](O)CN1; NMeI = CC[C@H](C)[C@H](NC)C(=O)O; Orn = NCCC[C@H](N)C(=O)O; Sar = CNCC(=O)O

How the values were obtained:
[1] = molecular target: T1, human calcitonin receptor (hCTR2) (Homo sapiens, UniProt P30988); assay: hCTR2 cAMP assay (AlphaScreen) in COS7 cells; assay type: cell-based; conditions: cAMP induction, COS7 cells expressing hCTR2; Table 1; read-out: hCTR2 EC50
T1 construct: expressed in transfected cells
T1 sequence (P30988 25-474): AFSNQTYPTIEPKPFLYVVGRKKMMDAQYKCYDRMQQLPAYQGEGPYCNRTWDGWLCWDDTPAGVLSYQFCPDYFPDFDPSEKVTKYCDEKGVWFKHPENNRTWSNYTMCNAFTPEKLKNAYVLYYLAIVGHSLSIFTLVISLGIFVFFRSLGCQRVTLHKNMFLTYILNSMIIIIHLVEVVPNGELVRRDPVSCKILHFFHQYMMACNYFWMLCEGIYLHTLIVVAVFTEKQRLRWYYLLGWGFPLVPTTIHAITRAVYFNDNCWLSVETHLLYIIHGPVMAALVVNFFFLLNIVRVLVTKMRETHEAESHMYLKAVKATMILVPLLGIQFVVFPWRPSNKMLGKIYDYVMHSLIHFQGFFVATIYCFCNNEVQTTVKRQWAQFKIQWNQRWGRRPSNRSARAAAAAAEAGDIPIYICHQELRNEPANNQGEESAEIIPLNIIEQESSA
Outline: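 cAMP induction, read by AlphaScreen after lysis, gives EC50 values via 4PL curve fitting. Peptides were applied at rising concentrations for 15 min at 37 °C, with IBMX and 0.1% casein in HEPES-buffered Tyrode pH 7.4, to COS7 cells (no endogenous RAMPs) stably expressing human CTR2.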

[2] = Assessment of physical stability (Thioflavin T fibrillation); assay type: physicochemical; set-up: key: FND = fibrillation not detected; FD = fibrillation detected; conditions: 1 mg/ml, 40° C., ThT; for Fibrillation pH 4.0 (Ac): 50 mM acetate buffer pH 4.0, 96 hours; for Fibrillation pH 7.0 (His): 50 mM histidine buffer pH 7.0, 96 hours; for Fibrillation pH 7.0 (Phos.): 50 mM phosphate buffer pH 7.0, 96 hours
Outline: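 Fibrillation lag-time, in hours, taken where regressions of the initial stable phase and the growth phase intersect. ThT (40 μM) fluorescence monitored at 40 °C for 96 h, 10-min reads each preceded by 300 s mixing. Peptide at 1 mg/ml in 50 mM buffers: phosphate or histidine pH 7.0, acetate pH 4.0.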

[3] = Assessment of solubility (turbidity absorbance at 325 nm); assay type: physicochemical; conditions: pH 6.0; named as exception to solubility ≥1 mg/ml; read-out: solubility at pH 6.0
Procedure: A stock solution of the test peptide (2 mg/ml; determined from the weighed amount of peptide) in demineralized water adjusted to pH 2.5 with HCl was prepared, and aliquots were diluted 1:1 in 100 mM acetate buffer (pH 4.0 and pH 5.0), 100 mM histidine buffer (pH 6.0 and pH 7.0) and 100 mM phosphate buffer (pH 6.0, pH 7.0 and pH7.5), respectively, and loaded in a standard flat-bottom, non-sterile 96-well UV Microplate. The absorbance of samples (single samples, n=1) at 280 and 325 nm was measured in an absorbance-based plate reader, which was preheated to ambient temperature (typically 25° C.). The turbidity absorbance criterion for a peptide solubility of ≥1 mg/ml was an absorbance at 325 nm of s 0.02 absorbance units (which is 5 to 6 times the standard deviation of 8 buffer samples in a plate).

[4] = Assessment of chemical stability (RP-HPLC normalized purity); assay type: physicochemical; conditions: 7 days, 40° C., Table 1; for Normalized purity after 7 days, 40° C., pH 4: pH 4, 0.2 mg/ml; for Normalized purity after 7 days, 40° C., pH 6: pH 6, 0.2 mg/ml; for Normalized purity after 7 days, 40° C., pH 7.5: pH 7.5, 0.2 mg/ml; for Normalized purity after 7 days, 40° C., pH 9: pH 9, 0.2 mg/ml
Outline: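 Purity after 7 days at 40° C is expressed relative to T=0 (set to 100) for each pH. Samples at 0.2 mg/ml, pH 4, 6, 7.5 or 9, analyzed by RP-HPLC with UV 220 nm on C8 (ammonium formate) or C18 (TFA) gradients.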

[5] = molecular target: T2, human amylin receptor 3 (hAMYR3), hCTR2 co-expressed with hRAMP3 (Homo sapiens, UniProt O60896+P30988); assay: hAMYR3 cAMP assay (AlphaScreen) in COS7 cells; assay type: cell-based; conditions: cAMP induction, COS7 cells expressing hAMYR3; Table 1; read-out: hAMYR3 EC50
T2 construct: expressed in transfected cells
T2 sequence (P30988 25-474): T1 sequence (P30988 25-474)
T2 sequence (O60896 24-148 partner): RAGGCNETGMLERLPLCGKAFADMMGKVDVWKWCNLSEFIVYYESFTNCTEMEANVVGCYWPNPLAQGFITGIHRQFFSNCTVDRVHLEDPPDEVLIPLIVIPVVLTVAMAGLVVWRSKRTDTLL
Outline: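 EC50 values derive from 4PL curve fits of cAMP (AlphaScreen) in lysates of RAMP-naive COS7 cells stably carrying hCTR2 plus hRAMP3. Peptide dilution series were applied for 15 min at 37 °C in pH 7.4 Tyrode buffer containing 100 µM IBMX and 0.1% casein.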

[6] = Pharmacokinetic (PK) profiling in rats; assay type: in vivo, rat; set-up: CI/F (apparent clearance values): unit not given here; conditions: Sprague Dawley male rats, single sc 30 nmol/kg
Procedure: Sprague Dawley male rats were given a single subcutaneous (sc) bolus of each peptide to be tested, as specified below. 30 nmol/kg doses of compound were administered. Blood samples were drawn from the tail vein prior to dosing and at 24, 48, 72, 96 and 168 hours after dosing. Blood samples were taken from two rats at each time point, and only 2 blood samples were drawn from each rat, i.e. […] were used for each compound. The rats were euthanized immediately after the last blood sampling by concussion and cervical dislocation.
The dosing vehicle used for each test peptide was a mannitol-containing histidine buffer (pH 7.0). Plasma samples were analyzed after precipitation with ethanol by liquid chromatography mass spectrometry (LC-MS/MS). Mean plasma concentrations were used for calculation of the pharmacokinetic parameters using the non-compartmental approach in Phoenix WinNonlin 6.3.
Plasma terminal elimination half-life (t1/2) was determined as ln(2)/λz, where λz is the magnitude of the slope of the log linear regression of the log concentration versus time profile during the terminal phase. Apparent clearance (CL/F) was determined as dose/AUCinf (sc), where AUCinf is the area under the plasma concentration vs. time curve extrapolated to infinity (AUCinf=AUClast+Clast/λz, where Clast is the last observed plasma concentration).

| EC50 [1] | Fibrillation pH 4.0 (Ac) [2] | Fibrillation pH 7.0 (His) [2] | Fibrillation pH 7.0 (Phos.) [2] | solubility [3] | Normalized purity after 7 days, 40° C., pH 4 [4] | Normalized purity after 7 days, 40° C., pH 6 [4] | Normalized purity after 7 days, 40° C., pH 7.5 [4] | Normalized purity after 7 days, 40° C., pH 9 [4] | EC50 [5] | CI/F (apparent clearance values) [6] | Compound |
| --- | --- | --- | --- | --- | --- | --- | --- | --- | --- | --- | --- |
| 0.16 nM | FND | FD | FD | < 1000 µg/mL | A (A = >90%) | A (A = >90%) | B (B = 70-90%) | B (B = 70-90%) |  |  | CC[C@H](C)[C@@H](C(=O)N[C@@H](CC(C)C)C(=O)N[C@@H](CO)C(=O)N[C@@H](CO)C(=O)N[C@H](C(=O)N[C@@H](CCC(=O)O)C(=O)N[C@H](C(=O)NCC(=O)N[C@@H](CO)C(=O)N[C@@H](Cc1ccccc1)C(=O)N[C@H](C(=O)N1C[C@H](O)C[C@H]1C(N)=O)[C@@H](C)O)C(C)C)[C@@H](C)O)N(C)C(=O)[C@H](C)NC(=O)CN(C)C(=O)[C@H](Cc1ccccc1)NC(=O)[C@H](CO)NC(=O)[C@H](CO)NC(=O)[C@H](CCCNC(=N)N)NC(=O)[C@@H](NC(=O)[C@H](CC(C)C)NC(=O)[C@H](Cc1ccccc1)NC(=O)[C@H](Cc1c[nH]cn1)NC(=O)[C@H](C)NC(=O)[C@H](CC(C)C)NC(=O)[C@H](CCCNC(=N)N)NC(=O)[C@H](CCC(=O)O)NC(=O)[C@@H](NC(=O)[C@H](C)NC(=O)[C@@H]1CSSC[C@H](NC(=O)[C@H](CCCNC(=N)N)NC(=O)CC[C@H](NC(=O)CCCCCCCCCCCCCCCCCCC(=O)O)C(=O)O)C(=O)NCC(=O)N[C@@H]([C@@H](C)O)C(=O)N[C@@H](C)C(=O)N[C@@H]([C@@H](C)O)C(=O)N1)[C@@H](C)O)[C@@H](C)O [Compound 10, [19CD]-isoGlu-R-C( )-GTAT-C( )-ATERLAHFLTRSSF-Gly(Me)-A-Ile(Me)-LSSTEVGSFT-Hyp-NH2] ({C20 diacid-γGlu}-RCGTATCATERLAHFLTRSSF[Sar]A[NMeI]LSSTEVGSFT[Hyp]-NH2; disulfide 2-7) |
|  | FND | FD | FD |  | A (A = >90%) | B (B = 70-90%) | A (A = >90%) | B (B = 70-90%) | 0.2 nM | 0.0118 | CC[C@H](C)[C@@H](C(=O)N[C@@H](CC(C)C)C(=O)N[C@@H](CO)C(=O)N[C@@H](CO)C(=O)N[C@H](C(=O)N[C@@H](CCC(=O)O)C(=O)N[C@H](C(=O)NCC(=O)N[C@@H](CO)C(=O)N[C@@H](CCCN)C(=O)N[C@H](C(=O)N1C[C@H](O)C[C@H]1C(N)=O)[C@@H](C)O)C(C)C)[C@@H](C)O)N(C)C(=O)[C@H](C)NC(=O)CN(C)C(=O)[C@H](Cc1ccccc1)NC(=O)[C@H](CO)NC(=O)[C@H](CO)NC(=O)[C@H](CCCNC(=N)N)NC(=O)[C@@H](NC(=O)[C@H](CC(C)C)NC(=O)[C@H](Cc1ccccc1)NC(=O)[C@H](Cc1c[nH]cn1)NC(=O)[C@H](C)NC(=O)[C@H](CC(C)C)NC(=O)[C@H](CCCNC(=N)N)NC(=O)[C@H](CCC(=O)O)NC(=O)[C@@H](NC(=O)[C@H](C)NC(=O)[C@@H]1CSSC[C@H](NC(=O)[C@H](CCCNC(=N)N)NC(=O)CC[C@H](NC(=O)CCCCCCCCCCCCCCCCCCC(=O)O)C(=O)O)C(=O)NCC(=O)N[C@@H]([C@@H](C)O)C(=O)N[C@@H](C)C(=O)N[C@@H]([C@@H](C)O)C(=O)N1)[C@@H](C)O)[C@@H](C)O [Compound 11, [19CD]-isoGlu-R-C( )-GTAT-C( )-ATERLAHFLTRSSF-Gly(Me)-A-Ile(Me)-LSSTEVGS-Orn-T-Hyp-NH2] ({C20 diacid-γGlu}-RCGTATCATERLAHFLTRSSF[Sar]A[NMeI]LSSTEVGS[Orn]T[Hyp]-NH2; disulfide 2-7) |
|  | FND | FD | FD |  | A (A = >90%) | A (A = >90%) | A (A = >90%) | A (A = >90%) | 0.38 nM | 0.0106 | CC[C@H](C)[C@@H](C(=O)N[C@@H](CC(C)C)C(=O)N[C@@H](CO)C(=O)N[C@@H](CO)C(=O)N[C@H](C(=O)N[C@@H](CCC(=O)O)C(=O)N[C@H](C(=O)NCC(=O)N[C@@H](CO)C(=O)NCC(=O)N[C@H](C(=O)N1C[C@H](O)C[C@H]1C(N)=O)[C@@H](C)O)C(C)C)[C@@H](C)O)N(C)C(=O)[C@H](C)NC(=O)CN(C)C(=O)[C@H](Cc1ccccc1)NC(=O)[C@H](CO)NC(=O)[C@H](CO)NC(=O)[C@H](CCCNC(=N)N)NC(=O)[C@@H](NC(=O)[C@H](CC(C)C)NC(=O)[C@H](Cc1ccccc1)NC(=O)[C@H](Cc1c[nH]cn1)NC(=O)[C@H](C)NC(=O)[C@H](CC(C)C)NC(=O)[C@H](CCCNC(=N)N)NC(=O)[C@H](CCC(=O)O)NC(=O)[C@@H](NC(=O)[C@H](C)NC(=O)[C@@H]1CSSC[C@H](NC(=O)[C@H](CCCNC(=N)N)NC(=O)CC[C@H](NC(=O)CCCCCCCCCCCCCCCCCCC(=O)O)C(=O)O)C(=O)NCC(=O)N[C@@H]([C@@H](C)O)C(=O)N[C@@H](C)C(=O)N[C@@H]([C@@H](C)O)C(=O)N1)[C@@H](C)O)[C@@H](C)O [Compound 13, [19CD]-isoGlu-R-C( )-GTAT-C( )-ATERLAHFLTRSSF-Gly(Me)-A-Ile(Me)-LSSTEVGSGT-Hyp-NH2] ({C20 diacid-γGlu}-RCGTATCATERLAHFLTRSSF[Sar]A[NMeI]LSSTEVGSGT[Hyp]-NH2; disulfide 2-7) |
